System: OVCAR5
Assay: drug sensitivity score (DSS) from 5-point dose-response viability curve (DSS (area-under-curve based score)); higher = more sensitive (stronger growth inhibition or killing); extreme values may be limits of the assay
Conditions: exposure time: 72 h; concentration range: 5 concentrations over 10,000-fold range
Method in brief: (§1)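 Ovarian cancer and normal ovarian cell lines were tested in 384-well plates, with drugs dispensed acoustically (Echo 550) in DMSO or water at five concentrations covering a 10,000-fold range. After 1,500 cells per well were added, plates were incubated for 3 days at 37°C and 5% CO2, and viability was read by CellTiter-Glo luminescence on a PHERAstar FS. Breeze software gave a drug sensitivity score for each cell line and drug, where a higher score means greater sensitivity. A value of zero means no response.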

Compound	drug sensitivity score
CCOc1ccn(-c2ccc(F)cc2)c(=O)c1C(=O)Nc1ccc(Oc2ccnc(N)c2Cl)c(F)c1	0
CCn1c(C(=O)N(C2CC2)C2CC2)cc2c3c(ncn3C)c(Nc3cc(C)n(C)n3)nc21	0
C[C@@]1(C(=O)Nc2ccc(F)nc2)CCCN1c1nc(Nc2cc(C3CC3)n[nH]2)c2cccn2n1	14.4
Cc1c(-c2ccc(N3CCc4cccc(C(=O)Nc5nc6ccccc6s5)c4C3)nc2C(=O)O)cnn1CC12CC3CC(CC(C3)C1)C2	1
Cc1nn(C)c(COc2ccc(N3CCN(S(=O)(=O)N(C)C)CC3)cc2)c1-c1cccc2c(CCCOc3cccc4ccccc34)c(C(=O)O)n(CCN3CCOCC3)c12	5.2
O=c1[nH]c(C2CCCN2)nc2c1oc1ccc(Cl)cc12 (configuration not stated)	4
COc1ccc(C[C@H](NC(=O)[C@H](C)NC(=O)CN2CCOCC2)C(=O)N[C@@H](Cc2ccccc2)C(=O)C2(C)CO2)cc1 (stereo in doubt) [ONX-0914]	18.2
CC/C(=C(\c1ccc(O)cc1)c1ccc(OCCN(C)C)cc1)c1ccccc1 [4-hydroxytamoxifen]	5.9
Nc1ncnc2c1nc(N)n2[C@@H]1O[C@H](CO)[C@@H](O)[C@H]1O [8-amino-adenosine]	23.5
Nc1ncnc2c1nc(Cl)n2[C@@H]1O[C@H](CO)[C@@H](O)[C@H]1O [8-chloro-adenosine]	11.9
COc1cc2c(cc1OCCCN1CCCC1)N=C(N)C21CCC1 [A-366]	0.4
COc1ccc(S(=O)(=O)Nc2cccnc2Nc2ccc(O)cc2)cc1 [ABT-751]	10.3
C[C@H](Nc1ncnc2[nH]cnc12)c1cc2ccc(F)cc2nc1-c1ccccn1 [AMG319]	0
COCCOc1cnc2ccn([C@H](C)c3nnc4c(F)cc(-c5cnn(C)c5)cn34)c(=O)c2c1 [AMG-337]	0
CC1CCC(n2c3cnccc3c3cnc(Nc4ccc5c(n4)CCN(C(=O)CO)C5)nc32)CC1 (configuration not stated) [AMG-925]	2.5
CC(C)[C@H](C(=O)Nc1ccc(C(=O)NO)cc1)c1ccccc1 [AR-42]	16.5
Cc1sc2c(c1C)C(c1ccc(Cl)cc1)=N[C@@H](CC(=O)Nc1ccc(OCCOCCOCCOCCNc3cccc4c3C(=O)N(C3CCC(=O)NC3=O)C4=O)cc1)c1nnc(C)n1-2 (some centres not stated) [ARV-825]	7.9
COc1cc(N2CCC(N3CCN(C)CC3)CC2)ccc1Nc1ncnc(Nc2ccccc2S(=O)(=O)C(C)C)n1 [ASP3026]	8.2
O=C(NC1CCNCC1)c1n[nH]cc1NC(=O)c1c(Cl)cccc1Cl [AT7519]	13.5
O=C(Nc1c[nH]nc1-c1nc2ccc(CN3CCOCC3)cc2[nH]1)NC1CC1 [AT9283]	4.6
CC[C@H](CC#N)OC(=O)N[C@@H](C)c1cccc(NC(=O)Nc2ccc(-c3cnco3)c(OC)c2)c1 [AVN944]	13.6
COc1cc(N2CCN(C)CC2)ccc1Nc1nccc(-c2cn(C)c3cnccc23)n1 [AZ191]	2
COc1cc(OC2CCN(C)CC2)ccc1Nc1ncc2c(n1)n(C1CCCC1)c(=O)n2C [AZ 3146]	6.2
CN(C)CCCOc1ccc(-c2ccc3ncc4c(c3c2)n(C2CCOCC2)c(=O)n4C)cn1 [AZD0156]	1.4
N[C@@H]1CCCN(c2c(/C=C3\SC(=O)NC3=O)cccc2-c2ccccc2)C1 [AZD1208]	1.4
Cc1cc(Nc2nc(N[C@@H](C)c3ncc(F)cn3)ncc2Cl)[nH]n1 [AZD1480]	0.5
COc1cc2ncnc(Nc3cccc(Cl)c3F)c2cc1OC(=O)N1CCN(C)C[C@H]1C [AZD3759]	0.2
Cc1[nH]nc(C(F)(F)F)c1Cc1sc2c(c1C(=O)N1C[C@](C)(O)CO1)c(=O)n(C)c(=O)n2C(C)C [AZD3965]	0

System: OVCAR8
Assay: as above
Conditions: exposure time: 72 h; concentration range: 5 concentrations over 10,000-fold range
Method in brief: as §1

Compound	drug sensitivity score
CCOc1ccn(-c2ccc(F)cc2)c(=O)c1C(=O)Nc1ccc(Oc2ccnc(N)c2Cl)c(F)c1	0
CCn1c(C(=O)N(C2CC2)C2CC2)cc2c3c(ncn3C)c(Nc3cc(C)n(C)n3)nc21	0
C[C@@]1(C(=O)Nc2ccc(F)nc2)CCCN1c1nc(Nc2cc(C3CC3)n[nH]2)c2cccn2n1	5.2
Cc1c(-c2ccc(N3CCc4cccc(C(=O)Nc5nc6ccccc6s5)c4C3)nc2C(=O)O)cnn1CC12CC3CC(CC(C3)C1)C2	0.8
Cc1nn(C)c(COc2ccc(N3CCN(S(=O)(=O)N(C)C)CC3)cc2)c1-c1cccc2c(CCCOc3cccc4ccccc34)c(C(=O)O)n(CCN3CCOCC3)c12	7.4
O=c1[nH]c(C2CCCN2)nc2c1oc1ccc(Cl)cc12 (configuration not stated)	0
COc1ccc(C[C@H](NC(=O)[C@H](C)NC(=O)CN2CCOCC2)C(=O)N[C@@H](Cc2ccccc2)C(=O)C2(C)CO2)cc1 (stereo in doubt) [ONX-0914]	17.7
CC/C(=C(\c1ccc(O)cc1)c1ccc(OCCN(C)C)cc1)c1ccccc1 [4-hydroxytamoxifen]	2.6
Nc1ncnc2c1nc(N)n2[C@@H]1O[C@H](CO)[C@@H](O)[C@H]1O [8-amino-adenosine]	20.5
Nc1ncnc2c1nc(Cl)n2[C@@H]1O[C@H](CO)[C@@H](O)[C@H]1O [8-chloro-adenosine]	13.2
COc1cc2c(cc1OCCCN1CCCC1)N=C(N)C21CCC1 [A-366]	1
COc1ccc(S(=O)(=O)Nc2cccnc2Nc2ccc(O)cc2)cc1 [ABT-751]	11.5
C[C@H](Nc1ncnc2[nH]cnc12)c1cc2ccc(F)cc2nc1-c1ccccn1 [AMG319]	0
COCCOc1cnc2ccn([C@H](C)c3nnc4c(F)cc(-c5cnn(C)c5)cn34)c(=O)c2c1 [AMG-337]	0
